According to ChEMBL document CHEMBL3352249, “Novel indolizine derivatives with unprecedented inhibitory activity on human farnesyltransferase” (Bioorg Med Chem Lett, 2014):

What was measured:
[1] = biological target: T1, Protein farnesyltransferase (Homo sapiens, UniProt P49354+P49356); experiment: Inhibition of human recombinant farnesyltransferase using Dansyl-GCVLS peptide as substrate at 100 uM after 15 mins by fluorescence assay
[2] = biological target: T1, Protein farnesyltransferase; experiment: Inhibition of human recombinant farnesyltransferase using Dansyl-GCVLS peptide as substrate after 15 mins by fluorescence assay

SMILES | inhibition [1] [%] | IC50 [2] [µM]
C#CCOC(=O)c1cc(C(=O)c2ccccc2)n2ccc(C)cc12 | 72 | 
C#CCOC(=O)c1cc(C(=O)c2ccc(Br)cc2)n2c(C)cccc12 | 100 | 1.3
O=C(O)c1cc(C(=O)c2ccc(Cl)cc2)n2ccccc12 | 100 | 20.7
C#CCCOC(=O)c1cc(C(=O)c2ccccc2)n2c(C)cccc12 | 94 | 7.3
C#CCCOC(=O)c1cc(C(=O)c2ccccc2)n2ccc(C)cc12 | 0 | 
C#CCCOC(=O)c1cc(C(=O)c2ccc(Br)cc2)n2ccc(C)cc12 | 68 | 
C#CCNC(=O)c1cc(C(=O)c2ccc(Cl)cc2)n2c(C)cccc12 | 97 | 14.9
C#CCOC(=O)c1cc(C(=O)c2ccc(Cl)cc2)n2ccc(C)cc12 | 0 | 
C#CCCOC(=O)c1cc(C(=O)c2ccccc2)n2ccccc12 | 61 | 
C#CCOC(=O)c1cc(C(=O)c2ccccc2)n2ccccc12 | 100 | 14.4
C#CCOC(=O)c1cc(C(=O)c2ccc(Cl)cc2)n2ccccc12 | 54 | 
C#CCCOC(=O)c1cc(C(=O)c2ccc(Br)cc2)n2ccccc12 | 0 | 
C#CCNC(=O)c1cc(C(=O)c2ccccc2)n2ccccc12 | 100 | 22.1
C#CCNC(=O)c1cc(C(=O)c2ccc(Cl)cc2)n2ccccc12 | 94 | 5.9
C#CCNC(=O)c1cc(C(=O)c2ccc(Br)cc2)n2ccccc12 | 100 | 4.4
C#CCNC(=O)c1cc(C(=O)c2ccccc2)n2ccc(C)cc12 | 100 | 15.3
C#CCCOC(=O)c1cc(C(=O)c2ccc(Cl)cc2)n2ccc(C)cc12 | 0 | 
Cc1ccn2c(C(=O)c3ccc(Br)cc3)cc(C(=O)O)c2c1 | 0 | 
C#CCNC(=O)c1cc(C(=O)c2ccccc2)n2c(C)cccc12 | 74 | 57.8
Cc1cccc2c(C(=O)O)cc(C(=O)c3ccc(Cl)cc3)n12 | 79 | 32.2
C#CCCOC(=O)c1cc(C(=O)c2ccc(Cl)cc2)n2c(C)cccc12 | 97 | 20.7
Cc1ccn2c(C(=O)c3ccc(Cl)cc3)cc(C(=O)O)c2c1 | 0 | 
C#CCCOC(=O)c1cc(C(=O)c2ccc(Br)cc2)n2c(C)cccc12 | 100 | 2.2

The remaining lines, values ahead:

inhibition [1] [%] | IC50 [2] [µM] | SMILES
100 | 2.6 | C#CCOC(=O)c1cc(C(=O)c2ccc(Cl)cc2)n2c(C)cccc12
91 | 14.8 | Cc1cccc2c(C(=O)O)cc(C(=O)c3ccc(Br)cc3)n12
48 |  | Cc1cccc2c(C(=O)O)cc(C(=O)c3ccccc3)n12
0 |  | C#CCCOC(=O)c1cc(C(=O)c2ccc(Cl)cc2)n2ccccc12
100 | 19.4 | O=C(O)c1cc(C(=O)c2ccc(Br)cc2)n2ccccc12
100 | 19.7 | O=C(O)c1cc(C(=O)c2ccccc2)n2ccccc12
100 | 72.3 | Cc1ccn2c(C(=O)c3ccccc3)cc(C(=O)O)c2c1
100 | 0.18 | CCCCCCCCCCCCCC/C(C(=O)O)=C(\C)C(=O)O [CHAETOMELLIC ACID A]
90 | 11.4 | C#CCNC(=O)c1cc(C(=O)c2ccc(Br)cc2)n2c(C)cccc12
93 | 20.8 | C#CCOC(=O)c1cc(C(=O)c2ccccc2)n2c(C)cccc12
